Columns and labels:
[1] = Volume of distribution at steady state in guinea pig at 1 mg/kg, iv; type: ADME, organism-based, Cavia porcellus; details: in vivo, read-out: Vdss
[2] = target: Cytochrome P450 2D6 (Homo sapiens, UniProt P10635); test: Inhibition of CYP2D6 (unknown origin); type: ADME
[3] = test system: Cavia porcellus; test: Analgesic activity in Dunkin-Hartley guinea pig complete Freund's adjuvant-induced mechanical hyperalgesia model assessed as reversal in paw withdrawal threshold at 3 mg/kg, po after 5 hrs relative to control; type: functional
[4] = test system: Cavia porcellus; test: Analgesic activity in Dunkin-Hartley guinea pig complete Freund's adjuvant-induced mechanical hyperalgesia model assessed as reversal in paw withdrawal threshold at 10 mg/kg, po after 5 hrs relative to control; type: functional
[5] = Plasma concentration in Dunkin-Hartley guinea pig complete Freund's adjuvant-induced mechanical hyperalgesia model at 3 mg/kg, po after 5 hrs; type: ADME, organism-based, Cavia porcellus
[6] = Half life in rat at 0.5 mg/kg, iv; type: ADME, organism-based; details: in vivo
[7] = AUC in guinea pig at 20 mg/kg, po; type: ADME, organism-based, Cavia porcellus; details: in vivo
[8] = test system: Cavia porcellus; test: Analgesic activity in Dunkin-Hartley guinea pig complete Freund's adjuvant-induced mechanical hyperalgesia model assessed as reversal in paw withdrawal threshold at 1 mg/kg, po after 5 hrs relative to control; type: functional
[9] = Oral bioavailability in rat at 1 mg/kg; type: ADME, organism-based; details: in vivo
[10] = test system: Rattus norvegicus; test: Analgesic activity in rat assessed as reversal of complete Freund's adjuvant-induced mechanical hyperalgesia at 10 mg/kg, po after 1 hr relative to control; type: functional
[11] = test system: Rattus norvegicus; test: Analgesic activity in rat assessed as reversal of complete Freund's adjuvant-induced mechanical hyperalgesia at 30 mg/kg, po after 5 hrs relative to control; type: functional
[12] = Stability in human liver microsomes assessed as parent compound remaining after 30 mins in presence or absence of NADPH; type: ADME, microsome; details: read-out: Stability
[13] = Plasma concentration in Dunkin-Hartley guinea pig complete Freund's adjuvant-induced mechanical hyperalgesia model at 10 mg/kg, po after 5 hrs; type: ADME, organism-based, Cavia porcellus
[14] = target: Cytochrome P450 3A4 (Homo sapiens, UniProt P08684); test: Inhibition of CYP3A4 (unknown origin); type: ADME
Sequence of Cytochrome P450 3A4 (P08684 whole entry): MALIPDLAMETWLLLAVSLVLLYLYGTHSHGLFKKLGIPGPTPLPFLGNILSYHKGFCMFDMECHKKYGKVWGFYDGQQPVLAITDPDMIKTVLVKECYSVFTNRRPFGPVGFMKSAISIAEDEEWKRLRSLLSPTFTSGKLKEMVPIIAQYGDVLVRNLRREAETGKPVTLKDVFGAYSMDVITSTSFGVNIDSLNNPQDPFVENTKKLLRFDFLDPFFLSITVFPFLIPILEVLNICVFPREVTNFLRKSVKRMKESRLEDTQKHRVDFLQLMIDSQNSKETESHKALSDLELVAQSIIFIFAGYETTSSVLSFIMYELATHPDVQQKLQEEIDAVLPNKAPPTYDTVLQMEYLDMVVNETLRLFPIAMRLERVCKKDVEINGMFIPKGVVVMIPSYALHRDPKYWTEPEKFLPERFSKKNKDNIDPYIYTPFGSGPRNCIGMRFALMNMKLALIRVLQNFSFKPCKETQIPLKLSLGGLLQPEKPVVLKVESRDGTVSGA

[15] = Tmax in rat at 1 mg/kg, po; type: ADME, organism-based; details: in vivo
[16] = test system: Rattus norvegicus; test: Analgesic activity in rat assessed as reversal of complete Freund's adjuvant-induced mechanical hyperalgesia at 30 mg/kg, po after 1 hr relative to control; type: functional
[17] = Protein binding in rat; type: ADME; details: read-out: PB
[18] = Metabolic stability in human hepatocytes assessed as parent compound remaining after 1 hr; type: ADME, cell-based, Hepatocyte; details: read-out: Stability
[19] = Tmax in guinea pig at 20 mg/kg, po; type: ADME, organism-based, Cavia porcellus; details: in vivo
[20] = target: Cytochrome P450 2C19 (Homo sapiens, UniProt P33261); test: Inhibition of CYP2C19 (unknown origin); type: ADME
Sequence of Cytochrome P450 2C19 (P33261 whole entry): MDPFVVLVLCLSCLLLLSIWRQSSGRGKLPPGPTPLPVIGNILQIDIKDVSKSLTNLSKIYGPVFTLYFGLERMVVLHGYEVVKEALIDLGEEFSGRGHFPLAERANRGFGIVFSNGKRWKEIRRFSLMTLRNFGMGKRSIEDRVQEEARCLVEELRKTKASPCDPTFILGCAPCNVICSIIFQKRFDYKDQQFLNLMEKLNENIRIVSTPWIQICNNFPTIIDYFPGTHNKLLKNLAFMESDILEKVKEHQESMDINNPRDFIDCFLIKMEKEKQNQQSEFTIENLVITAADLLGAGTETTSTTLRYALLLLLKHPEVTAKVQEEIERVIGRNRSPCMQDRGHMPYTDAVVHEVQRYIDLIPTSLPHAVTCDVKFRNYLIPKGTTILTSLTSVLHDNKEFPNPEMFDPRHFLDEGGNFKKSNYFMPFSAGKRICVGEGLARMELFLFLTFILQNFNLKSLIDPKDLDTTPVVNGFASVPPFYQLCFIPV

[21] = test system: Rattus norvegicus; test: Analgesic activity in rat assessed as reversal of complete Freund's adjuvant-induced mechanical hyperalgesia at 10 mg/kg, po after 5 hrs relative to control; type: functional
[22] = Cmax in rat at 1 mg/kg, po; type: ADME, organism-based; design: dose 1 mg/kg, route oral; details: in vivo
[23] = Total clearance in rat at 0.5 mg/kg, iv; type: ADME, organism-based; details: in vivo
[24] = target: T1, Cytochrome P450 1A2 (Homo sapiens, UniProt P05177); test: Inhibition of CYP1A2 (unknown origin); type: ADME
T1 sequence (P05177 whole entry): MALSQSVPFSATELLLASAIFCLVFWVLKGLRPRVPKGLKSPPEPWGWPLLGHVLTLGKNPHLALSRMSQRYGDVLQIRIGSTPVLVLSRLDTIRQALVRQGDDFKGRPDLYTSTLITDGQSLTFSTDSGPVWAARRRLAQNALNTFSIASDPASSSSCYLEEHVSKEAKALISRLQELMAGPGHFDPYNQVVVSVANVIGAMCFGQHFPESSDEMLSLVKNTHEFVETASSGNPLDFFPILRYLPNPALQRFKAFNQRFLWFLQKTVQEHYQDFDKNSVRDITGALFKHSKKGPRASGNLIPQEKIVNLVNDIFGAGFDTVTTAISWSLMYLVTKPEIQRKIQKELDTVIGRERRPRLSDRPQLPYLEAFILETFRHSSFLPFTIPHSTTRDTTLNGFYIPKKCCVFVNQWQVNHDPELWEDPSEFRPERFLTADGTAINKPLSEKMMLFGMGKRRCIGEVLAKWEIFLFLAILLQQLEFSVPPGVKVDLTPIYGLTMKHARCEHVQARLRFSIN

[25] = test system: Rattus norvegicus; test: Analgesic activity in rat assessed as reversal of complete Freund's adjuvant-induced mechanical hyperalgesia at 30 mg/kg, po after 3 hrs relative to control; type: functional
[26] = test system: Rattus norvegicus; test: Analgesic activity in rat assessed as reversal of complete Freund's adjuvant-induced mechanical hyperalgesia at 10 mg/kg, po after 3 hrs relative to control; type: functional
[27] = Total clearance in guinea pig at 1 mg/kg, iv; type: ADME, organism-based, Cavia porcellus; details: in vivo
[28] = target: T2, Transient receptor potential cation channel subfamily V member 4 (Rattus norvegicus, UniProt Q9ERZ8); test: Antagonist activity at rat TRPV4 assessed as inhibition of 4alpha-PDD-induced activation
T2 sequence (Q9ERZ8 whole entry): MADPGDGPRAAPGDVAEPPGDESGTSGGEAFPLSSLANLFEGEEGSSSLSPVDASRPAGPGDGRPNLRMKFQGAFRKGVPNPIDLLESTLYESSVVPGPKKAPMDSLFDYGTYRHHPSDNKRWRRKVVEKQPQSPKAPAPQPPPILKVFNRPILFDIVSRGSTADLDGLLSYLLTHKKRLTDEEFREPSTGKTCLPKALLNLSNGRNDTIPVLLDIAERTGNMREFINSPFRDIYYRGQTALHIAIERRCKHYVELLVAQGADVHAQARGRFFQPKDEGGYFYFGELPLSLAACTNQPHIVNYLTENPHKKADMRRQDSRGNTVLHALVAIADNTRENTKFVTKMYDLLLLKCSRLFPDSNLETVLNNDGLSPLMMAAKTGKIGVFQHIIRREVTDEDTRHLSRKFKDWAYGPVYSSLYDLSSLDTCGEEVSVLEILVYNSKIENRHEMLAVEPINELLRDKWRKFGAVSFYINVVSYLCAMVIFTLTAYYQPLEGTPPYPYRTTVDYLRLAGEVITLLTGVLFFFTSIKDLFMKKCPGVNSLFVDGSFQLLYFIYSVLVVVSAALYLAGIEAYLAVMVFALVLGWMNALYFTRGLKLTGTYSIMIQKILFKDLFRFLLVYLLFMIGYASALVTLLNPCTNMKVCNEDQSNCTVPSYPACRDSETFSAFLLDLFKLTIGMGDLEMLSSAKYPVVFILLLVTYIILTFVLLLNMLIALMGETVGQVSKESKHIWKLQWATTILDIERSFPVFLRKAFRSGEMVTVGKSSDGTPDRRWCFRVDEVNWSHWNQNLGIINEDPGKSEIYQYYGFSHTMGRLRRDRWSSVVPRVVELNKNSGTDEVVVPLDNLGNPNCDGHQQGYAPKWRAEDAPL

[29] = Stability in rat liver microsomes assessed as parent compound remaining after 30 mins in presence or absence of NADPH; type: ADME, microsome; details: read-out: Stability
[30] = Metabolic stability in rat hepatocytes assessed as parent compound remaining after 1 hr; type: ADME, cell-based, Hepatocyte; details: read-out: Stability
[31] = Half life in guinea pig at 1 mg/kg, iv; type: ADME, organism-based, Cavia porcellus; details: in vivo
[32] = Plasma concentration in Dunkin-Hartley guinea pig complete Freund's adjuvant-induced mechanical hyperalgesia model at 1 mg/kg, po after 5 hrs; type: ADME, organism-based, Cavia porcellus
[33] = AUC in rat at 1 mg/kg, po; type: ADME, organism-based; details: in vivo
[34] = test system: Salmonella typhimurium; test: Genotoxicity in Salmonella typhimurium by Ames test; type: toxicity, organism-based; details: salmonella enterica subsp. enterica serovar typhimurium
[35] = Cmax in guinea pig at 20 mg/kg, po measured 12 hrs post dose; type: ADME, organism-based, Cavia porcellus; design: dose 20 mg/kg, route oral; details: in vivo
[36] = target: T2, Transient receptor potential cation channel subfamily V member 4; test: Antagonist activity at rat TRPV4 assessed as inhibition of hypotonicity-induced activation
[37] = Protein binding in human; type: ADME; details: read-out: PB
[38] = Metabolic stability in guinea pig hepatocytes assessed as parent compound remaining after 1 hr; type: ADME, cell-based, Cavia porcellus, Hepatocyte; details: read-out: Stability
[39] = Antagonist activity at guinea pig TRPV4 assessed as inhibition of 4alpha-PDD-induced activation; design: species or system Cavia porcellus
[40] = Protein binding in guinea pig; type: ADME, Cavia porcellus; details: read-out: PB (converted)
[41] = Antagonist activity at guinea pig TRPV4 assessed as inhibition of hypotonicity-induced activation; design: species or system Cavia porcellus
[42] = Oral bioavailability in guinea pig at 20 mg/kg; type: ADME, organism-based, Cavia porcellus; details: in vivo
[43] = target: Cytochrome P450 2C9 (Homo sapiens, UniProt P11712); test: Inhibition of CYP2C9 (unknown origin); type: ADME
Sequence of Cytochrome P450 2C9 (P11712 whole entry): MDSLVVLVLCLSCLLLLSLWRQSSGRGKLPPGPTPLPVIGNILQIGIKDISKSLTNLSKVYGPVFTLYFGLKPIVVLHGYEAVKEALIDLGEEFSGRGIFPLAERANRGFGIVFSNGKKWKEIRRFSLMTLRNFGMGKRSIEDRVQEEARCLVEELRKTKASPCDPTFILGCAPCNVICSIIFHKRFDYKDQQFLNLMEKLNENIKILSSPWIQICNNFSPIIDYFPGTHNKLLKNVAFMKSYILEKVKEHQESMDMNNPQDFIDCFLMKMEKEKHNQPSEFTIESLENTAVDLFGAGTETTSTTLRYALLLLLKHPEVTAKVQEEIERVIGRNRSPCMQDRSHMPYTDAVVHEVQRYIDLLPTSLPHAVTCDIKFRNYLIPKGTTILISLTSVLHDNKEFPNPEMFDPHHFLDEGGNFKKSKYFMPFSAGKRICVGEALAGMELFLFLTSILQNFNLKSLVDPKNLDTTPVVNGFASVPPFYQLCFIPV

[44] = Volume of distribution at steady state in rat at 0.5 mg/kg, iv; type: ADME, organism-based; details: in vivo, read-out: Vdss

Sequence of Cytochrome P450 2D6 (P10635 whole entry): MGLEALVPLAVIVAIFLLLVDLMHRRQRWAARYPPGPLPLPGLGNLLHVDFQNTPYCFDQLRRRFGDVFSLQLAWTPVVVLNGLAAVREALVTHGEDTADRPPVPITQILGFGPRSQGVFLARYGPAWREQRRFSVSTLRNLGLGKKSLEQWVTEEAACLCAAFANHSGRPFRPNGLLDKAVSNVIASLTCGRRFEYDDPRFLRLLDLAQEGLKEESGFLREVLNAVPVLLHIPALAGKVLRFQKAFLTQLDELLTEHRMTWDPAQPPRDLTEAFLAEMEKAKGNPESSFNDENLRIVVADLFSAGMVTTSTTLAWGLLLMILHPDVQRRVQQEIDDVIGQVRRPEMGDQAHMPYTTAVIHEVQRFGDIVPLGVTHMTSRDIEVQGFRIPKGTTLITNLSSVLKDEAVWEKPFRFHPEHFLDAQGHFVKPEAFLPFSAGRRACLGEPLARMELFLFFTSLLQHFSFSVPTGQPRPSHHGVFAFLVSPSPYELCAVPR

Vd [1]: 11 L/kg
INH [2]: > 20 µM
concentration at 5 h [5]: 69.4 ng/mL
half-life [6]: 486 min
AUC [7]: 4720 ng·h/mL
bioavailability [9]: 37.9%
remaining at 0.5 h [12]: 94.8%
concentration at 5 h [13]: 209 ng/mL
INH [14]: > 20 µM
Tmax [15]: 4 h
fraction unbound [17]: < 0.001
remaining at 1 h [18]: 91%
Tmax [19]: 12 h
INH [20]: > 20 µM
Cmax [22]: 55.2 ng/mL
clearance [23]: 7.22 mL/min/kg
INH [24]: > 20 µM
clearance [27]: 31.1 mL/min/kg
IC50 [28]: 8.6 nM
remaining at 0.5 h [29]: 69.2%
remaining at 1 h [30]: 105%
half-life [31]: 252 min
concentration at 5 h [32]: 21.2 ng/mL
AUC [33]: 900 ng·h/mL
Cmax [35]: 256 ng/mL
IC50 [36]: 2.1 nM
fraction unbound [37]: < 0.001
remaining at 1 h [38]: 73%
IC50 [39]: 0.9 nM
fraction unbound [40]: 0.003
IC50 [41]: 1.2 nM
bioavailability [42]: 44%
INH [43]: > 20 µM
Vd [44]: 4.6 L/kg
Structure (SMILES): Cc1nc(C)c(-c2csc(Nc3ccc(C(=O)N4C5CCC4CN(c4ncc(C(F)(F)F)cn4)C5)cn3)n2)s1
Activity [3]: 30.6%
Activity [4]: 43.4%
Activity [8]: 15.6%
Activity [10]: 15.5%
Activity [11]: 23.5%
Activity [16]: 22%
Activity [21]: 11%
Activity [25]: 29.7%
Activity [26]: 21.3%
Activity [34]: Non-Toxic

Source: ChEMBL document CHEMBL3853343, “Discovery of novel 2',4'-dimethyl-[4,5'-bithiazol]-2-yl amino derivatives as orally bioavailable TRPV4 antagonists for the treatment of pain: Part 2” (Bioorg Med Chem Lett, 2016)
